PubChem BioAssay AID1996
In brackets after ≈: the same amount, converted by molar mass.

Settings: buffer; pH 7.4; 200.0 µM

Going from `COc1ccccc1NC(=O)COC(=O)c1cc(C)n(C2CC2)c1C` to `CC(=O)OCC(=O)Nc1ccccc1OC(F)F`, the solubility kinetic rises from 3.4 µg/mL (≈ 9.93 µM) to over 38.9 µg/mL.

First: CCOc1ccccc1NS(=O)(=O)c1cn(C)c(=O)n(C)c1=O
Second: Cc1ccc(NS(=O)(=O)c2ccc3c(c2)n(C)c(=O)n3C)c(C)c1
The solubility kinetic of the first is 1.9-fold higher: 34.4 µg/mL (≈ 101 µM) for the first, 17.9 µg/mL (≈ 51.8 µM) for the second.

First: Cc1ccc(N2C(=O)C3C4C=CC(CC4)C3C2=O)cc1Br (configuration not stated)
Second: Cc1ccc2c(c1)N(CC(=O)NCC1CCCO1)C(=O)CO2 (configuration not stated)
The solubility kinetic of the first is lower: under 0.7 µg/mL for the first, over 45.7 µg/mL for the second.

Going from `CN(CC(=O)NCCN1CCOCC1)S(=O)(=O)c1ccc(Cl)cc1` to `O=S(=O)(Nc1ccccc1F)c1cccc(NC(=S)NCCN2CCOCC2)c1`, the solubility kinetic falls from over 56.4 µg/mL to 51.6 µg/mL (≈ 118 µM).

Going from `COCCOC(=O)C1=C(C)NC(=O)NC1c1ccco1` (configuration not stated) to `Cc1cccc(C(=O)NCC(c2ccco2)N(C)C)c1` (configuration not stated), the solubility kinetic falls from over 42 µg/mL to 36.9 µg/mL (≈ 135 µM).

Going from `CCOC(=O)N1CCN(CC(=O)Nc2ccc(F)cc2)CC1` to `O=C(CN1CCOCC1)Nc1cccc([N+](=O)[O-])c1`, the solubility kinetic falls from over 46.4 µg/mL to 36.3 µg/mL (≈ 137 µM).

First: N#Cc1ccccc1OCC(O)CS(=O)(=O)c1ccccc1 (configuration not stated)
Second: CCOc1ccccc1C(=O)NC1CCN(Cc2ccccc2)CC1
The solubility kinetic of the first is higher: over 47.6 µg/mL for the first, 36.8 µg/mL (≈ 109 µM) for the second.

`O=C(Cc1ccccc1)NCCc1cnc[nH]1` and `Cc1onc(-c2ccccc2)c1C(=O)NCCc1ccncc1` cannot be ordered by solubility kinetic: over 34.4 µg/mL for the first, over 46.1 µg/mL for the second.

First: CCC(=Nc1ccccc1N)c1c(O)[nH]c(=O)[nH]c1=O
Second: O=C1NC(c2ccccc2O)Nc2ccccc21 (configuration not stated)
The solubility kinetic of the first is 6.2-fold lower: 5.6 µg/mL (≈ 20.4 µM) for the first, 34.8 µg/mL (≈ 145 µM) for the second.

Going from `Oc1ccc(NCc2cccs2)cc1` to `Cc1ccc(NC(=O)C2CCN(C(=O)c3cccs3)CC2)cc1`, the solubility kinetic rises from 26.5 µg/mL (≈ 129 µM) to over 49.3 µg/mL.

First: CSc1cccc(NC(=O)c2[nH]c(C)c(C(C)=O)c2C)c1
Second: CC(=O)c1cccc(NC(=O)c2ccc3c(c2)OCO3)c1
The solubility kinetic of the first is 3.3-fold higher: 7.3 µg/mL (≈ 24.1 µM) for the first, 2.2 µg/mL (≈ 7.77 µM) for the second.

Going from `Cc1cc(=O)oc(C)c1C(=O)NCCN(C)Cc1ccccc1` to `CC(C)(C)c1ccc(C(=O)NCCOc2ccccc2)cc1`, the solubility kinetic falls from over 47.2 µg/mL to 2.2 µg/mL (≈ 7.4 µM).

Going from `CC(NC(=O)c1cc(F)c(F)cc1Cl)c1ccncc1` (configuration not stated) to `COc1cc2ccccc2cc1C(=O)Nc1ccncc1`, the solubility kinetic falls from over 44.5 µg/mL to 38.6 µg/mL (≈ 139 µM).

First: CC(C)CC(OC(=O)c1nsc(Cl)c1Cl)C(=O)NC1CCCC1 (configuration not stated)
Second: O=C(NC1CCCCC1)c1ccc(-c2ccc(Cl)cc2)o1
The solubility kinetic of the first is higher: 22.4 µg/mL (≈ 59.1 µM) for the first, under 0.7 µg/mL for the second.

`CCC(C)N(C(=O)CSc1nncn1C)C1CCS(=O)(=O)C1` (configuration not stated) and `CNC(=O)CSc1nnc(-c2cnccn2)n1C` cannot be ordered by solubility kinetic: over 52 µg/mL for the first, over 39.6 µg/mL for the second.

Going from `COc1ccc(OCC(=O)Nc2ccc3nc(C)sc3c2)cc1` to `COc1ccc(OCC(=O)NC2CCCc3ccccc32)cc1` (configuration not stated), the solubility kinetic rises from 15.8 µg/mL (≈ 48.1 µM) to 42.4 µg/mL (≈ 136 µM) (2.7-fold).

First: CC(Oc1cccnc1[N+](=O)[O-])C(=O)N1CCc2ccccc21 (configuration not stated)
Second: O=C(COc1ccccc1[N+](=O)[O-])NC1CC1
The solubility kinetic of the first is higher: over 47 µg/mL for the first, 29.1 µg/mL (≈ 123 µM) for the second.

Going from `CCCCN1CNC(=S)N(CCc2ccc(OCC)c(OCC)c2)C1` to `Br.COc1ccc(C2=CSC3=NCCN23)cc1OC`, the solubility kinetic rises from 12.6 µg/mL (≈ 34.5 µM) to over 51.5 µg/mL.

Going from `Cc1cccc(S(=O)(=O)Nc2nc3ccccc3nc2OC(C)C)c1` to `CCOc1ncccc1C(=O)Nc1ccc(S(=O)(=O)Nc2cc(C)nc(C)n2)cc1`, the solubility kinetic rises from 3.1 µg/mL (≈ 8.67 µM) to over 64.1 µg/mL.

`Cc1nn(C)c(C)c1NC(=O)COc1ccc(Cl)cc1` and `Cc1ccc(OCC(O)Cn2nc(C)cc2C)cc1` (configuration not stated) cannot be ordered by solubility kinetic: over 44.1 µg/mL for the first, over 39.1 µg/mL for the second.

`O=C(O)C1CCCCC1C(=O)NC1C2CC3CC(C2)CC1C3` (configuration not stated) and `O=C(NC1CCCCCC1)C1CCN(S(=O)(=O)c2cnc[nH]2)CC1` are within 1.5-fold of each other in solubility kinetic: 42.4 µg/mL (≈ 139 µM) for the first, 50.7 µg/mL (≈ 143 µM) for the second.

`O=C(NCc1ccccn1)Nc1ccccc1F` and `CC(C)C(=O)Nc1ccc(S(=O)(=O)Nc2ccccn2)cc1` cannot be ordered by solubility kinetic: over 36.8 µg/mL for the first, over 47.9 µg/mL for the second.

`Cc1ccc(SC(C)C(=O)O/N=C(\N)c2ccncc2)cc1` (configuration not stated) and `NS(=O)(=O)c1ccc(CCNC(=O)c2ccncc2)cc1` cannot be ordered by solubility kinetic: over 47.3 µg/mL for the first, over 45.8 µg/mL for the second.

First: CCC1CCCCN1Cc1nc(Cc2ccccc2Cl)no1 (configuration not stated)
Second: Cc1ccccc1-c1nc(C#N)c(N2CCCCC2)o1
The solubility kinetic of the first is 9.1-fold higher: 16.3 µg/mL (≈ 51 µM) for the first, 1.8 µg/mL (≈ 6.73 µM) for the second.

`COc1ccc(N(C)S(=O)(=O)c2c(C)noc2C)c(OC)c1` and `COc1ccc(NS(=O)(=O)c2ccc(C(=O)N(C)Cc3ccc(C)o3)cc2)cc1` cannot be ordered by solubility kinetic: over 49 µg/mL for the first, 61.1 µg/mL (≈ 147 µM) for the second.

`Cc1ccnc(NC(=O)CNC(=O)c2cccs2)c1` and `O=C(Nc1cccc(NC(=O)c2cccs2)c1)c1cccnc1` cannot be ordered by solubility kinetic: over 41.3 µg/mL for the first, over 48.5 µg/mL for the second.

Going from `CCOC(=O)CN(C(=O)c1ccccc1[N+](=O)[O-])C(C)(C)C` to `COC(=O)c1cc(C(=O)c2ccc(C(C)(C)C)cc2)c[nH]1`, the solubility kinetic falls from 43.7 µg/mL (≈ 142 µM) to 18.2 µg/mL (≈ 63.8 µM) (2.4-fold).

`O=C(Cc1ccccc1)N1CCC2(CC1)NCCc1[nH]cnc12` and `COc1ccccc1CC(=O)N1CCN(C(=O)c2ccco2)CC1` are within 1.5-fold of each other in solubility kinetic: 43.1 µg/mL (≈ 139 µM) for the first, 48.3 µg/mL (≈ 147 µM) for the second.

Going from `CC(=O)N1CCN(S(=O)(=O)c2ccc(C)cc2)C1C` (configuration not stated) to `CC1CC(C)CN(S(=O)(=O)c2ccc(C(C)(C)C)cc2)C1` (configuration not stated), the solubility kinetic falls from over 42.4 µg/mL to under 0.7 µg/mL.

First: O=C(COC(=O)/C=C/c1ccc(C(F)(F)F)cc1)NCCC1=CCCCC1
Second: FC(F)(F)c1cccc(NC2=NCCCS2)c1
The solubility kinetic of the first is 7.8-fold lower: 4.3 µg/mL (≈ 11.3 µM) for the first, 33.7 µg/mL (≈ 129 µM) for the second.

`CCc1cc(=O)oc2cc(OCC(=O)N3CCC(C(N)=O)CC3)ccc12` and `CC(C)NC(=O)COCc1cc(-c2ccc3c(c2)OCO3)on1` cannot be ordered by solubility kinetic: over 53.8 µg/mL for the first, over 47.7 µg/mL for the second.

Going from `O=C(N/N=C/c1ccccc1O)C1CCCC1` to `c1ccc(NC2=NCCS2)cc1`, the solubility kinetic falls from over 34.8 µg/mL to 23.5 µg/mL (≈ 132 µM).

Compared with `O=C(CSc1ncnc2ccccc12)Nc1ccc2c(c1)OCCO2`, `Cc1ccc(SCC(=O)Nc2ccc(N3CCOCC3)cc2)cc1C` is 9.5-fold higher in solubility kinetic: 1.3 µg/mL (≈ 3.68 µM) for the first, 12.3 µg/mL (≈ 34.5 µM) for the second.

Going from `CCOC(=O)c1ccc(S(=O)(=O)N2CCN(C/C=C/c3ccccc3)CC2)cc1` to `NC(=O)C1CC12c1ccccc1-c1ccccc12` (configuration not stated), the solubility kinetic rises from 2.8 µg/mL (≈ 6.75 µM) to 22 µg/mL (≈ 93.5 µM) (7.9-fold).

Going from `Cc1cccc(OCC(O)Cn2ccnc2C)c1` (configuration not stated) to `O=C(NCc1ccco1)c1nn2cccnc2c1Cl`, the solubility kinetic rises from 33.2 µg/mL (≈ 135 µM) to over 41.5 µg/mL.

Going from `COc1ccc(C2NC(=O)N(C)C(C)=C2[N+](=O)[O-])cc1` (configuration not stated) to `Cc1cc(C)nc(NC(=O)c2ccc(Cl)c([N+](=O)[O-])c2)n1`, the solubility kinetic falls from over 41.6 µg/mL to 22.1 µg/mL (≈ 72.1 µM).

Going from `C=CCn1c(SC(F)F)nc2scc(-c3ccco3)c2c1=O` to `C=CCNC(=O)N1CCc2[nH]c3ccc(F)cc3c2C1`, the solubility kinetic rises from under 0.4 µg/mL to over 41 µg/mL.

First: CCc1sc(NC(=O)C(C)C)nc1-c1ccccc1
Second: CCCCC(C(=O)NC(C)c1ccccc1)C(=O)NC(C)c1ccccc1 (configuration not stated)
The solubility kinetic of the first is 10-fold higher: 15.6 µg/mL (≈ 56.9 µM) for the first, 1.5 µg/mL (≈ 4.09 µM) for the second.

Compared with `O=C(Cn1c(CO)nc2ccccc21)NCCc1ccc(F)cc1`, `COc1ccccc1OCc1nc(-c2cccc([N+](=O)[O-])c2)no1` is 41-fold lower in solubility kinetic: 36.7 µg/mL (≈ 112 µM) for the first, 0.9 µg/mL (≈ 2.75 µM) for the second.

Compared with `Nc1cccc(-c2nc3ncccc3o2)c1`, `O=Cc1sc([O-])nc1-[n+]1ccc2ccccc2c1` is lower in solubility kinetic: over 31.7 µg/mL for the first, 5.1 µg/mL (≈ 19.9 µM) for the second.

Going from `CCOC(=O)C1=C(C)OC(N)=C(C#N)C1c1ccc(C)s1` (configuration not stated) to `Cn1c(=O)n(C)c2cc(S(=O)(=O)NCC(=O)O)ccc21`, the solubility kinetic rises from 13.2 µg/mL (≈ 43.4 µM) to over 44.9 µg/mL.

`Nc1c(C(=O)O)cnn1-c1ccccc1` and `N#Cc1cccnc1N1CCN(C(=O)c2ccco2)CC1` cannot be ordered by solubility kinetic: over 30.5 µg/mL for the first, over 42.3 µg/mL for the second.

`O=C1N=C(N2CCOCC2)S/C1=C\c1cccs1` and `O=C(c1cc(F)cc2c1OCOC2)N1CCN(c2ccc(F)cc2)CC1` cannot be ordered by solubility kinetic: over 42.1 µg/mL for the first, over 54.1 µg/mL for the second.

`Cc1ccc(NC(=O)Nc2ncnc3nc[nH]c23)cc1` gave a solubility kinetic of 6.3 µg/mL (≈ 23.5 µM).
